Results: ChEMBL document CHEMBL1127387, “Synthesis and structure-activity relationships of a series of penicillin-derived HIV proteinase inhibitors: heterocyclic ring systems containing P1' and P2' substituents” (J Med Chem, 1994)

Legend:
MT4 = experiment: Compound was tested for effective concentration against MT-4 cell line; format: functional, cell-based; settings: Homo sapiens
C8166 = experiment: Compound was tested for effective concentration against C8166 cell line; format: functional, cell-based; settings: Homo sapiens
[1] = molecular target: Human immunodeficiency virus type 1 protease (Human immunodeficiency virus 1, UniProt Q72874); experiment: In vitro inhibitory activity against HIV proteinase

Compound	EC50 (MT4) [nM]	EC50 (C8166) [nM]	IC50 [1] [nM]
CC(C)(C)NC(=O)[C@@H]1C[C@@H]2CCCC[C@@H]2CN1C[C@@H](O)[C@H](Cc1ccccc1)NC(=O)[C@H](CC(N)=O)NC(=O)c1ccc2ccccc2n1	2	2	
CC(C)(C)NC(=O)[C@@H]1C[C@@H]2CCCC[C@@H]2CN1C[C@@H](O)CNC(=O)[C@@H]1N[C@@H](C(NC(=O)Cc2ccccc2)C(N)=O)SC1(C)C (stereo partly specified)	590	120	23
CC(C)(C)NC(=O)[C@@H]1C[C@@H](O)CN1CC(O)CNC(=O)[C@@H]1N[C@@H](C(NC(=O)Cc2ccccc2)C(=O)NCc2ccccc2)SC1(C)C (stereo partly specified)			5100
CCCCCCCNC(=O)C(NC(=O)Cc1ccccc1)[C@@H]1N[C@@H](C(=O)NCC(O)CN2C[C@H]3CCCC[C@H]3C[C@H]2C(=O)NC(C)(C)C)C(C)(C)S1 (stereo partly specified)	> 100000		86
CC(C)(C)NC(=O)C1N(C[C@@H](O)CNC(=O)[C@@H]2N[C@@H](C(NC(=O)Cc3ccccc3)C(=O)NCc3ccccc3)SC2(C)C)C(C)(C)SC1(C)C (stereo partly specified)			190
CC(C)(C)NC(=O)[C@@H]1C[C@@H]2CCCC[C@@H]2CN1C[C@@H](O)CNC(=O)[C@@H]1N[C@@H](C(NC(=O)Cc2ccccc2)C(=O)NCc2ccccc2)SC1(C)C (stereo partly specified)	350	50	23
CC(C)(C)NC(=O)[C@@H]1C[C@@H](OC(C)(C)C)CN1CC(O)CNC(=O)[C@@H]1N[C@@H](C(NC(=O)Cc2ccccc2)C(=O)NCc2ccccc2)SC1(C)C (stereo partly specified)			1600
CC(C)(C)NC(=O)[C@H]1N(CC(O)CNC(=O)[C@@H]2N[C@@H]([C@H](NC(=O)Cc3ccccc3)C(=O)NCc3ccccc3)SC2(C)C)CSC1(C)C (stereo partly specified)			21
CC(C)(C)NC(=O)[C@@H]1CCCN1CC(O)CNC(=O)[C@@H]1N[C@@H](C(NC(=O)Cc2ccccc2)C(=O)NCc2ccccc2)SC1(C)C (stereo partly specified) [listing 1 of 2 here]			1500
COC(=O)C(NC(=O)Cc1ccccc1)[C@@H]1N[C@@H](C(=O)NC[C@H](O)CN2C[C@H]3CCCC[C@H]3C[C@H]2C(=O)NC(C)(C)C)C(C)(C)S1 (stereo partly specified)	3900		54
CC(C)(C)NC(=O)[C@@H]1CCCCN1C[C@H](O)CNC(=O)[C@@H]1N[C@@H](C(NC(=O)Cc2ccccc2)C(=O)NCc2ccccc2)SC1(C)C (stereo partly specified)			> 2200
CC(C)(C)NC(=O)[C@@H]1C[C@H](OCc2ccccc2)CN1CC(O)CNC(=O)[C@@H]1N[C@@H](C(NC(=O)Cc2ccccc2)C(=O)NCc2ccccc2)SC1(C)C (stereo partly specified)			650
CC(C)(C)NC(=O)[C@@H]1C[C@@H]2CCCC[C@@H]2CN1C[C@H](O)CNC(=O)[C@@H]1N[C@@H](C(NC(=O)Cc2ccccc2)C(=O)NCC2CCCCC2)SC1(C)C (stereo partly specified)			300
CC(C)(C)NC(=O)[C@@H]1C[C@@H]2CCCC[C@@H]2CN1CC(O)CNC(=O)[C@@H]1N[C@@H](C(NC(=O)Cc2ccccc2)C(=O)NCCNC(=O)OC(C)(C)C)SC1(C)C (stereo partly specified)	52	100	160
CC(C)(C)NC(=O)[C@H]1CN(C(=O)Oc2ccccc2)CCN1C[C@@H](O)CNC(=O)[C@@H]1N[C@@H](C(NC(=O)Cc2ccccc2)C(=O)NCc2ccccc2)SC1(C)C (stereo partly specified)			82
CC(C)(C)NC(=O)[C@@H]1CCCN1CC(O)CNC(=O)[C@@H]1N[C@@H](C(NC(=O)Cc2ccccc2)C(=O)NCc2ccccc2)SC1(C)C (stereo partly specified) [listing 2 of 2 here]			3100
CC(C)(C)NC(=O)[C@@H]1CN(C(=O)Oc2ccccc2)CCN1C[C@@H](O)CNC(=O)[C@@H]1N[C@@H](C(NC(=O)Cc2ccccc2)C(=O)NCc2ccccc2)SC1(C)C (stereo partly specified)			58
CC(C)(C)NC(=O)[C@@H]1CCCCN1C[C@@H](O)CNC(=O)[C@@H]1N[C@@H](C(NC(=O)Cc2ccccc2)C(=O)NCc2ccccc2)SC1(C)C (stereo partly specified)			6500
CCNC(=O)C(NC(=O)Cc1ccccc1)[C@@H]1N[C@@H](C(=O)NCC(O)CN2C[C@H]3CCCC[C@H]3C[C@H]2C(=O)NC(C)(C)C)C(C)(C)S1 (stereo partly specified)	430	740	31
CC(C)(C)NC(=O)C1N(C[C@H](O)CNC(=O)[C@@H]2N[C@@H](C(NC(=O)Cc3ccccc3)C(=O)NCc3ccccc3)SC2(C)C)C(C)(C)SC1(C)C (stereo partly specified)			93
CC(C)(C)NC(=O)[C@@H]1CSCN1CC(O)CNC(=O)[C@@H]1N[C@@H](C(NC(=O)Cc2ccccc2)C(=O)NCc2ccccc2)SC1(C)C (stereo partly specified)			450
C[C@@H](C(=O)NC(C)(C)C)N(CC(O)CNC(=O)[C@@H]1N[C@@H](C(NC(=O)Cc2ccccc2)C(=O)NCc2ccccc2)SC1(C)C)CC1CCCCC1 (stereo partly specified)			6400
CCO[C@@H]1C[C@@H](C(=O)NC(C)(C)C)N(C[C@@H](O)CNC(=O)[C@@H]2N[C@@H](C(NC(=O)Cc3ccccc3)C(=O)NCc3ccccc3)SC2(C)C)C1 (stereo partly specified)			> 35000
CC(C)(C)NC(=O)[C@@H]1C[C@@H]2CCCC[C@@H]2CN1CC(O)CNC(=O)[C@@H]1N[C@@H](C(NC(=O)Cc2ccccc2)C(=O)NCCNC(=O)CCCC[C@@H]2SC[C@@H]3NC(=O)N[C@@H]32)SC1(C)C (stereo partly specified)	18000		120
CCNC(=O)C(NC(=O)Cc1ccccc1)[C@@H]1N[C@@H](C(=O)NCC(O)CN(C)[C@@H](CC2CCCCC2)C(=O)NC(C)(C)C)C(C)(C)S1 (stereo partly specified)			710
CC(C)(C)NC(=O)[C@@H]1C[C@@H]2CCCC[C@@H]2CN1C[C@H](O)CNC(=O)[C@@H]1N[C@@H](C(NC(=O)Cc2ccccc2)C(=O)NCc2ccccc2)SC1(C)C (stereo partly specified)	13600		160
CN(C)c1ccc(CNC(=O)C(NC(=O)Cc2ccccc2)[C@@H]2N[C@@H](C(=O)NC[C@H](O)CN3C[C@H]4CCCC[C@H]4C[C@H]3C(=O)NC(C)(C)C)C(C)(C)S2)cc1 (stereo partly specified)	520	270	26
CC1(C)S[C@H](C(NC(=O)Cc2ccccc2)C(=O)NCc2ccccc2)N[C@H]1C(=O)N[C@H](Cc1ccccc1)[C@H](O)CC(=O)NCc1ccccc1 (stereo partly specified)			4600
CCNC(=O)C(NC(=O)Cc1ccccc1)[C@@H]1N[C@@H](C(=O)NCCNC(=O)[C@@H]2N[C@@H]([C@H](NC(=O)Cc3ccccc3)C(=O)NCC)SC2(C)C)C(C)(C)S1 (stereo partly specified)	5400		5
CCO[C@@H]1C[C@@H](C(=O)NC(C)(C)C)N(C[C@H](O)CNC(=O)[C@@H]2N[C@@H](C(NC(=O)Cc3ccccc3)C(=O)NCc3ccccc3)SC2(C)C)C1 (stereo partly specified)			> 35000
